In US7759078B2, “Diagnosis and treatment of cancer” (priority 2003, dated 2010):

Experiments:
[1] = tested on: voltage gated Na+ channel in MAT-LyLu rat prostatic cancer cell line; test: current recordings of VGSC functional expression in MAT-LyLu cells after 24 h incubation; format: cell-based
Method: FIG. 9. (A) Current recordings from the MAT-LyLu rat prostatic cancer cell line elicited by depolarising the membrane from a holding potential of −100 mV to 0 mV following 24 h incubation in 0% FBS, 100 ng/ml EGF and 1 μM AG1478. […] (B) Histograms showing mean peak Na^+ current density ± standard error following 24 h incubation in 0% FBS, 100 ng/ml EGF, 1 μM AG1478 and EGF receptor antibody (1 μg/ml). Statistical significance is indicated as **=p<0.01 and ***=p<0.001, respectively.
Epidermal growth factor (EGF) upregulates VGSC functional expression. […] This effect is blocked by co-application of EGF receptor kinase inhibitor (AG1478; Calbiochem, San Diego, Calif., USA). Application of EGF receptor antibody (Oncogene, Cambridge, Mass., USA) also reduces the basal VGSC current implying that the phenomenon occurs endogenously.

[2] = tested on: PN1 expression in PC12 cells; settings: cited from earlier work
[3] = tested on: MAT-LyLu cells; settings: cited from earlier work
[4] = tested on: MAT-LyLu and PC-3 cells; settings: cited from earlier work

Epidermal growth factor [EGF]
VGSC functional expression (peak Na+ current density) ([1]; 24 h incubation, 100 ng/ml EGF): upregulates

COc1cc2ncnc(Nc3cccc(Cl)c3)c2cc1OC [AG1478]
effect on EGF potentiation of functional VGSC expression ([1]; co-application with EGF, 1 μM AG1478, 24 h): blocked

nerve growth factor [NGF]
PN1 expression [2]: upregulates

NC1=N[C@H](O)[C@H]2[C@H]3O[C@]4(O)O[C@@H]([C@@H](O)[C@@]2(N1)[C@@H]4O)[C@]3(O)CO [TTX, tetrodotoxin]
effect on cell morphology [3]: retract their processes and become compact | cells' invasion in vitro [4]: significantly reduced | reduction of the cells' invasive potential [4]: ~30%
